Results taken from patent US5985922A, “Amino acid derivatives and active oxygen-resisting agent” (Ajinomoto Co., Inc., priority 1997, dated 1999).

What was measured:
lipid peroxidation = assay: Test for an Active Oxygen Resistance (inhibition of lipid peroxidation in mouse brain homogenate); type: biochemical; details: whole brain homogenate, C57 black mouse, 20-mM phosphate buffer; 37° C., 30 minutes
Method: The test was conducted according to the method described in Method in Enzymol., vol. 52, p. […] The outline of the test method was that a homogenized 20-mM phosphate buffer of the whole brain of a C57 black mouse was prepared, a test substance was added thereto, and an absorbance of the mixture was measured.
Percent peroxidation inhibition (%)--
A1 : Absorbance in the addition of the test compound
A2 : Absorbance before the addition of the test compound
A3 : Absorbance when the test compound is not added, nor is the heating at 37° C. for 30 minutes conducted.

[1] = Test for a Solubility (oil solvents, 1% by weight); type: physicochemical
Method: The solubility in the solvent shown in Table 2 when the concentration was 1% by weight was evaluated.

Row | Solubility in liquid paraffin [1] | Solubility in olive oil [1] | SMILES | Percent inhibition of lipid peroxidation (lipid peroxidation) [%]
1 | insoluble | insoluble | C[C@H](NCc1ccccc1O)C(=O)O [N-(2-hydroxybenzyl)-L-alanine, reference compound] | 6
2 | insoluble | insoluble | O=C(O)CNCc1ccccc1O [N-(2-hydroxybenzyl)-L-glycine, reference compound] | 
3 | insoluble | insoluble | O=C(O)[C@H](Cc1ccccc1)NCc1ccccc1O [N-(2-hydroxybenzyl)-L-phenylalanine, reference compound] | 
4 | soluble | soluble | CCCCCCCCCCCCCCCCCCOC(=O)[C@H](C)NCc1ccccc1O [Synthesis Example 2, N-(2-hydroxybenzyl)-L-alanine stearyl ester] | 16
5 | gelling | soluble | CCCCCCCCCCCCNC(=O)[C@H](C)NCc1ccccc1O [Synthesis Example 5, N-(2-hydroxybenzyl)-L-alanine laurylamide] | 80
6 | gelling | soluble | CCCCCCCCCCCCNC(=O)CNCc1ccccc1O [Synthesis Example 7, N-(2-hydroxybenzyl)glycine laurylamide] | 

Further lines, the compound ahead of its results:

Row | SMILES | Solubility in liquid paraffin [1] | Solubility in olive oil [1] | Percent inhibition of lipid peroxidation (lipid peroxidation) [%]
7 | O=C(O)CC(O)(CC(=O)O)C(=O)O [Citric acid, reference compound] |  |  | -15
8 | CCCCCCCCCCCCOC(=O)[C@H](C)NCc1ccccc1O [Synthesis Example 1, N-(2-hydroxybenzyl)-L-alanine lauryl ester] | soluble | soluble | 39
9 | CCCCCCCCCCCCOC(=O)CNCc1ccccc1O [Synthesis Example 3, N-(2-hydroxybenzyl)glycine lauryl ester] | soluble | soluble | 
10 | CCCCCCCCCCCCOC(=O)[C@H](Cc1ccccc1)NCc1ccccc1O [Synthesis Example 4, N-(2-hydroxybenzyl)-L-phenylalanine lauryl ester] | soluble | soluble | 
11 | CCCCCCCCCCCCCCCCCCNC(=O)[C@H](C)NCc1ccccc1O [Synthesis Example 6, N-(2-hydroxybenzyl)-L-alanine stearylamide] | gelling | soluble | 17
12 | CCCCCCCCCCCCNC(=O)[C@H](Cc1ccccc1)NCc1ccccc1O [Synthesis Example 8, N-(2-hydroxybenzyl)phenylalanine laurylamide] | gelling | soluble | 
13 | O=C1O[C@H]([C@@H](O)CO)C(O)=C1O [Vitamin C, reference compound] |  |  | -23
